Results from paper PMC9148072, “Design, Cytotoxicity and Antiproliferative Activity of 4-Amino-5-methyl-thieno[2,3-d]pyrimidine-6-carboxylates against MFC-7 and MDA-MB-231 Breast Cancer Cell Lines” (Molecules, 2022).
Converted amounts (≈) assume the structure as drawn. Read-outs that look alike come from different tables or passages of the source. Values belong to the compound of their own block, whether it stands above or below them.

Assays:
[1] = molecular target: Aurora B kinase; set-up: method as in PMID 21778056; details: Figure 1; read-out: Aur B IC50; cited from earlier work
[2] = system: FGFR1; details: Figure 1; cited from earlier work
[3] = system: MDA-MB-231 cell line; assay: MTT antiproliferative assay, MDA-MB-231; format: cell-based, human; details: for IC50: MDA-MB-231, 72 h, MTT; for Selective Index MDA-MB-231: SI = IC50 of MCF-10A/IC50 of MDA-MB-231
Protocol: (§1) The compounds were studied for antiproliferative activity by standard MTT dye-reduction assay. Cell cultures from MCF-10A, MCF-7 and MDAMB-231 cell lines were incubated for 72 h in the presence of the tested substances in a wide range of concentrations. At the MCF-10A and MDA-MB-231 cell lines, compound 4 was applied in the range from 0.5 to 100 µg/mL, and all others from 4 to 1000 µg/mL.
(§2) All breast cell lines (MCF-10A, MCF-7 and MDA-MB-231) were purchased from the American Type Culture Collection—ATCC (Manassas, VA, USA). The MCF-7 and MDA-MB-231 were cultivated in Dulbecco’s Modified Eagle’s Medium (DMEM) supplemented with 10% fetal bovine serum (FBS), 1% sodium pyruvate, 1% MEM nonessential amino acids (NEAA) without antibiotics. The nontumorigenic breast cell line (MCF-10A) was cultivated in DMEM medium (Sigma-Aldrich, St. Louis, MO, USA) supplemented with 10% FBS, 1% sodium pyruvate, 1% nonessential amino acids (NEAA), 20 ng/mL human epithelia growth factor (hEGF), 10 μg/mL insulin, and 0.5 μg/mL hydrocortisone without antibiotics. All cell lines were maintained in a humidified atmosphere with 5% CO2 at 37 °C.
(§3) Using the standard MTT dye-reduction assay, described by Mosmann the antiproliferative activity was tested. The method is based on the metabolism of the tetrazolium salt MTT to insoluble formazan. The formazan absorption was registered using a microplate reader at λ = 540 nm. The measured absorption is an indicator of cell viability and metabolic activity. Antiproliferative activities were expressed as IC50 values (concentrations required for 50% inhibition of cell growth), calculated using nonlinear regression analysis (GraphPad Software, San Diego, CA, USA).

[4] = system: MCF-10A cell line; assay: MTT antiproliferative assay, MCF-10A; format: cell-based; details: Homo sapiens, 72 h
Protocol: as §1
In order to determine antitumor activity, as a reliable model and a control we used the MCF-10A cell line (normal human mammary epithelial cells).
as §2, §3

[5] = 3T3 NRU phototoxicity test (irradiated); format: cell-based, mouse; details: mouse, BALB/3T3 clone A31 cells; BALB 3T3, irradiated 2.4 J/cm2, then 24 h; read-out: CC50 of Mean ± SD, Phototoxicity
Excerpt: (§4) Some organic compounds exposed to sunlight can be converted into phototoxins as a result of light-induced changes in energy state or degradation of the molecule. The estimation of phototoxicity can serve as an indicator of the photostability of the studied thienopyrimidines when irradiated with UV light and as evidence that their effect on cells is only due to the cytotoxicity and not to phototoxicity. The compounds were studied for cytotoxicity by the 3T3 Neutral Red […] (NRU) phototoxicity test based on a comparison of the cytotoxicity of a chemical when tested in the presence and absence of noncytotoxic exposure to UVA/vis light. The cells were incubated with the test substances at a variable concentration: for compound 4 from 0.5 to 100 μg/mL, and for all the rest from 15 to 4000 μg/mL for 24 h.
(§5) The light source used was a light emitting diode (LED) matrix, an artificial solar light simulator Helios-iO, model LE-9ND55-H—5500K (SERIC Ltd., Tokyo, Japan).
(§6) BALB/3T3 cells were cultured in 75 cm^2 tissue-culture flasks in DMEM, 10% FBS, 2 mM glutamine and antibiotics (penicillin 100 U/mL and streptomycin 100 µg/mL) at 37 °C, 5% CO2 and 90% relative humidity. Cytotoxicity/phototoxicity was assessed by validated BALB/3T3 clone A31 Neutral Red Uptake Assay (3T3 NRU test). Briefly, cells were plated in a 96-well microtiter plate at a density of 1 × 10^4 cells/100 µL/well and were incubated for 24 h. A wide concentration range of the test compounds was applied. In phototoxicity tests, 96-well plates were irradiated with dose 2.4 J/cm^2 and the cells were incubated for additional 24 h. After treatment with Neutral Red medium, washing and treatment with the Ethanol/Acetic acid solution, the absorption was measured on a TECAN microplate reader (TECAN, Grödig, Austria) at wavelength 540 nm.
(§7) Cytotoxicity/phototoxicity were expressed as CC50/PC50 values (concentrations required for 50% cytotoxicity/phototoxicity), calculated using nonlinear regression analysis (GraphPad Software, Prism 8.0.2 (263), San Diego, CA, USA). The CC50 values can be used to calculate the PIF (photoirritancy factor) for each test substance, according to the following formula:PIF = Cytotoxicity (CC50)/Phototoxicity (PC50)(6)

[6] = system: BALB 3T3 cells; assay: 3T3 NRU phototoxicity test (irradiated); format: cell-based, mouse; details: CC50/PC50; PIF < 2 not phototoxic, ≥ 2 and < 5 probable phototoxicity, ≥ 5 phototoxic
Excerpt: as §4, §5, §6, §7

[7] = system: MCF-7 cell line; assay: MTT antiproliferative assay, MCF-7; format: cell-based, human; details: for IC50: Homo sapiens, MCF7; for Selective Index MCF-7: SI = IC50 of MCF-10A/IC50 of MCF-7
Protocol: as §1
The MCF-7 cell line was treated with compounds 2, 3 and 4 at concentrations from 0.5 to 100 µg/mL, and all others from 4 to 1000 µg/mL. The antiproliferative activity expressed in % relative to the negative control (untreated cells accepted as a 100% viable or 0% antiproliferative activity) was determined and shown on Figure 6.
as §2, §3

[8] = 3T3 Neutral Red Uptake (NRU) cytotoxicity test; format: cell-based, mouse; details: mouse, BALB/3T3 clone A31 cells; for CC50 at 24 h: BALB 3T3, 24 h, no irradiation, read-out: CC50 of Mean ± SD, Cytotoxicity; for IC50 at 24 h: BALB 3T3, converted from µg/mL, read-out: IC50 cytotoxicity against BALB 3T3
[9] = system: EGFR; set-up: method as in PMID 31051400; details: cited from earlier work
[10] = system: ABC efflux pumps; set-up: method as in PMID 19783433; details: Figure 1; read-out: EC50 in the daunorubicin accumulation assay; cited from earlier work
[11] = system: BALB 3T3 cells; assay: 3T3 Neutral Red Uptake (NRU) cytotoxicity test; format: cell-based, mouse; details: BALB 3T3, 15 to 4000 µg/mL, 24 h
[12] = system: MDA-MB-231; details: results published earlier, read-out: IC50 (MDA-MB-231) of lead compounds A and B; cited from earlier work
[13] = system: MCF-7; details: results published earlier, read-out: IC50 (MCF-7) of lead compounds A and B; cited from earlier work
[14] = system: VEGER; set-up: method as in PMID 30343204; details: Figure 1; cited from earlier work
[15] = system: KDR; set-up: method as in doi:10.1016/j.medidd.2019.100009; details: Figure 1; cited from earlier work
[16] = system: Tie-2; set-up: method as in PMID 19854647; details: Figure 1; read-out: Tie-2 cells IC50; cited from earlier work
[17] = Homo sapiens, read-out: IC50 Antiproliferative Activity MDA-MB-231 in µM (converted)
[18] = Homo sapiens, read-out: IC50 ± SD Antiproliferative Activity MDA-MB-231
[19] = read-out: IC50 Antiproliferative Activity MCF-10A (converted)
[20] = read-out: IC50 ± SD Antiproliferative Activity MCF-10A
[21] = MCF-7, 72 h, MTT, read-out: IC50 Antiproliferative Activity MCF-7 in µM (converted)
[22] = MCF-7, 72 h, MTT, read-out: IC50 ± SD Antiproliferative Activity MCF-7

SMILES: Cc1sc2ncnc(N)c2c1C(=O)Nc1ccc(NC(=O)Nc2ccccc2)cc1 [II]
IC50 [1]: 0.0002 µM

SMILES: Oc1cccc(Nc2ncnc3sc(-c4ccccc4)cc23)c1 [VII]
IC50 [2]: 0.16 µM

IC50 [3, 17]: 16 µM | IC50 [3, 18]: 6.43 ± 0.95 µg/mL | IC50 [7, 21]: 5 µM | IC50 [7, 22]: 2.01 ± 0.07 µg/mL
SMILES: CCOC(=O)c1sc2nc(-c3cc(OC)c(OC)c(OC)c3)nc(N)c2c1C [Compound 4, Ethyl 4-Amino-5-methyl-2-(3,4,5-trimethoxyphenyl)thieno [2,3-d]Pyrimidine-6-carboxylate]
IC50 [4, 19]: 6.8 µM | IC50 [4, 20]: 2.74 ± 0.13 µg/mL | CC50 at 24 h [5]: 11.8 ± 0.8 µg/mL (≈ 29.4 µM) | PIF (Photoirritancy factor) [6]: 0.7 | CC50 at 24 h [8]: 8.37 ± 0.6 µg/mL (≈ 20.7 µM)

SMILES: C=CC(=O)N1CCc2c(sc3ncnc(NC(CO)c4ccccc4)c23)C1 (stereo not shown) [IX]
IC50 ([9]; Figure 1): 0.008 µM

melting point: 241 to 242 °C
SMILES: CCOC(=O)c1sc2nc(-c3cccnc3)nc(N)c2c1C [Compound 8, Ethyl 4-Amino-5-methyl-2-(pyridin-3-yl)thieno [2,3-d]Pyrimidine-6-carboxylate]

SMILES: Nc1nc(SCCc2ccccc2)nc2sc3c(c12)CCCC3 [V]
EC50 [10]: 1.02 µM

IC50 [3, 17]: 370 µM | IC50 [3, 18]: 116 ± 9.63 µg/mL | melting point: 259 to 261 °C | IC50 [7, 21]: 1410 µM | IC50 [7, 22]: 444 ± 9.2 µg/mL
SMILES: CCOC(=O)c1sc2nc(-c3ccncc3)nc(N)c2c1C.Cl [Compound 6, Ethyl 4-Amino-5-methyl-2-(pyridin-4-yl)thieno[2,3-d]pyrimidine-6-carboxylate hydrochloride]
Selective Index MDA-MB-231 [3]: 3.54 | IC50 [4, 19]: 1310 µM | IC50 [4, 20]: 411 ± 5.1 µg/mL | Selective Index MCF-7 [7]: 0.92 | CC50 at 24 h [8]: > 4000 µg/mL | IC50 at 24 h [8]: > 13000 µM | cytotoxicity versus BALB 3T3 cells (in words) [11]: not cytotoxic

IC50 ([7]; read-out: pCI50 in MCF-7 test (converted)): 0.0741 µM
SMILES: CCOC(=O)c1sc2nc(CCn3c(=N)n(CCc4nc5sc(C(=O)OC)c(C)c5c(=O)[nH]4)c4ccccc43)[nH]c(=O)c2c1C [A]
IC50 [12]: 0.16 µM | IC50 [13]: 0.074 µM

SMILES: CC(=O)c1cccc(NC(=O)Nc2ccc(Nc3ncnc4sc5c(c34)CCCC5)cc2)c1 [VIII]
IC50 [14]: 1.5 µM

SMILES: N.N.[Cl][Pt][Cl] [Cisplatin, reference compound]
Selective Index MDA-MB-231 [3]: 25 | Selective Index MCF-7 [7]: 2.36

IC50 [3, 17]: 250 µM | IC50 [3, 18]: 98.2 ± 4.73 µg/mL | IC50 ([3]; read-out: IC50 Antiproliferative Activity MDA-MB-231 in µM (converted)): 260 µM | IC50 [7, 21]: 23 µM | IC50 [7, 22]: 8.58 ± 0.55 µg/mL
SMILES: CCOC(=O)c1sc2nc(Cc3ccc([N+](=O)[O-])cc3)nc(N)c2c1C [Compound 3, Ethyl 4-Amino-5-methyl-2-(4-nitrobenzyl) Thieno [2,3-d] Pyrimidine-6-carboxylate]
IC50 [4, 19]: 440 µM | IC50 [4, 20]: 165 ± 8.81 µg/mL | CC50 at 24 h [5]: 578 ± 58.7 µg/mL (≈ 1550 µM) | CC50 at 24 h [8]: 1160 ± 57.8 µg/mL (≈ 3100 µM)

IC50 [3, 17]: 56 µM | IC50 [3, 18]: 18.3 ± 1.58 µg/mL | melting point: 159 to 161 °C | IC50 [7, 21]: 13 µM | IC50 [7, 22]: 4.3 ± 0.11 µg/mL
SMILES: CCOC(=O)c1sc2nc(Cc3ccccc3)nc(N)c2c1C [Compound 2, Ethyl 4-Amino-2-benzyl-5-methyl-thieno[2,3-d]pyrimidine-6-carboxylate]
Selective Index MDA-MB-231 [3]: 3.7 | IC50 [4, 19]: 210 µM | IC50 [4, 20]: 67.8 ± 9.1 µg/mL | CC50 at 24 h [5]: 632 ± 35.6 µg/mL (≈ 1930 µM) | PIF (Photoirritancy factor) [6]: 1.9 | CC50 at 24 h [8]: 1210 ± 103 µg/mL (≈ 3700 µM)

SMILES: Fc1ccccc1Nc1ncnc2sc3c(c12)CCCC3 [X]
EGFR/HER2 inhibitory activity IC50 (in words) [9]: in the nanomolar range

SMILES: Oc1cccc(Nc2ncnc3scc(-c4ccccc4)c23)c1 [VI]
IC50 [2]: 0.18 µM

IC50 [3, 18]: > 1000 µg/mL | melting point: 262 to 264 °C | IC50 [7, 22]: > 1000 µg/mL
SMILES: CCOC(=O)c1sc2nc(-c3ccccn3)nc(N)c2c1C [Compound 7, Ethyl 4-Amino-5-methyl-2-(pyridin—2-yl) Thieno[2,3-d]pyrimidine-6-carboxylate]
IC50 [4, 20]: > 1000 µg/mL | CC50 at 24 h [5]: 2550 ± 75.1 µg/mL (≈ 8120 µM) | PIF (Photoirritancy factor) [6]: 1.08 | CC50 at 24 h [8]: 2750 ± 64.3 µg/mL (≈ 8760 µM) | IC50 at 24 h [8]: 8800 µM

SMILES: Cc1ccccc1NC(=O)NCc1cccc(NC(=O)c2csc3ncnc(N)c23)c1 [III]
IC50 [1]: 0.0038 µM

SMILES: Cc1cccc(NC(=O)Nc2ccc(-c3csc4ncnc(N)c34)cc2)c1 [IV]
IC50 [15]: 0.003 µM

SMILES: Cn1cnc(-c2cccc(NC(=O)Nc3cc(C(F)(F)F)ccc3F)c2)c1-c1cc2c(N)ncnc2s1 [I]
IC50 [16]: 0.07 µM

SMILES: CCOC(=O)c1sc2nc(CCn3c(=N)[nH]c4ccccc43)[nH]c(=O)c2c1C [B]
IC50 [12]: 0.32 µM | IC50 [13]: 0.21 µM
